Reference: ChEMBL document CHEMBL1697781, “Assessment of the health effects of chemicals in humans: II. Construction of an adverse effects database for QSAR modeling” (Curr Drug Discov Technol, 2004)

tested on: Hepatotoxicity; assay: FDA HLAED, gamma-glutamyl transferase (GGT) increase; conditions: human

| Compound | GGT Increase - Activity Score | GGT Increase - Index Value | GGT Increase - Number of Reports |
| --- | --- | --- | --- |
| Oc1ccc2c3c1O[C@H]1[C@@H](O)CC[C@@]4(O)[C@@H](C2)N(CC2CCC2)CC[C@]314 [NALBUPHINE] | Inactive | 0 | < 4 |
| O=C1CC[C@@]2(O)[C@H]3Cc4ccc(O)c5c4[C@@]2(CCN3CC2CC2)[C@H]1O5 [NALTREXONE] | Inactive | 0 | < 4 |
| COc1ccc2cc([C@H](C)C(=O)O)ccc2c1 [NAPROXEN] | Inactive | 0.1 | < 4 |
| CCCc1c2oc(C(=O)O)cc(=O)c2cc2c(=O)cc(C(=O)O)n(CC)c12 [NEDOCROMIL] | Inactive | 0 | < 4 |
| CCc1nn(CCCN2CCN(c3cccc(Cl)c3)CC2)c(=O)n1CCOc1ccccc1 [NEFAZODONE] | Inactive | 1.1 | >= 4 |
| CCN[C@@H]1C[C@H](N)[C@@H](O[C@H]2OC(CN)=CC[C@H]2N)[C@H](O)[C@H]1O[C@H]1OC[C@](C)(O)[C@H](NC)[C@H]1O [NETILMICIN] | Inactive | 0 | < 4 |
| Cc1ccnc2c1NC(=O)c1cccnc1N2C1CC1 [NEVIRAPINE] | Active | 41.2 | >= 4 |
| COC(=O)C1=C(C)NC(C)=C(C(=O)OCCN(C)Cc2ccccc2)C1c1cccc([N+](=O)[O-])c1 (configuration not stated) [NICARDIPINE] | Inactive | 0.4 | < 4 |
| CN1CCC[C@H]1c1cccnc1 [NICOTINE] | Inactive | 0.3 | < 4 |

tested on: Hepatotoxicity; assay: FDA HLAED, liver enzyme composite activity; conditions: human

| Compound | Composite Activity - Active | Composite Activity - Marginal | Composite Activity - Score |
| --- | --- | --- | --- |
| Oc1ccc2c3c1O[C@H]1[C@@H](O)CC[C@@]4(O)[C@@H](C2)N(CC2CCC2)CC[C@]314 [NALBUPHINE] | 0 | 0 | Inactive |
| O=C1CC[C@@]2(O)[C@H]3Cc4ccc(O)c5c4[C@@]2(CCN3CC2CC2)[C@H]1O5 [NALTREXONE] | 0 | 0 | Inactive |
| CCCc1c2oc(C(=O)O)cc(=O)c2cc2c(=O)cc(C(=O)O)n(CC)c12 [NEDOCROMIL] | 0 | 0 | Inactive |
| CCc1nn(CCCN2CCN(c3cccc(Cl)c3)CC2)c(=O)n1CCOc1ccccc1 [NEFAZODONE] | 0 | 2 | Inactive |
| CCN[C@@H]1C[C@H](N)[C@@H](O[C@H]2OC(CN)=CC[C@H]2N)[C@H](O)[C@H]1O[C@H]1OC[C@](C)(O)[C@H](NC)[C@H]1O [NETILMICIN] | 0 | 0 | Inactive |
| Cc1ccnc2c1NC(=O)c1cccnc1N2C1CC1 [NEVIRAPINE] | 5 | 0 | Active |
| COC(=O)C1=C(C)NC(C)=C(C(=O)OCCN(C)Cc2ccccc2)C1c1cccc([N+](=O)[O-])c1 (configuration not stated) [NICARDIPINE] | 0 | 1 | Inactive |

same assay, conditions: human, Liver

| Compound | Composite Activity - Active | Composite Activity - Marginal | Composite Activity - Score |
| --- | --- | --- | --- |
| COc1ccc2cc([C@H](C)C(=O)O)ccc2c1 [NAPROXEN] | 0 | 0 | Inactive |
| CN1CCC[C@H]1c1cccnc1 [NICOTINE] | 0 | 0 | Inactive |

tested on: Hepatotoxicity; assay: FDA HLAED, serum glutamic pyruvic transaminase (SGPT) increase; conditions: human

| Compound | SGPT Increase - Activity Score | SGPT Increase - Index Value | SGPT Increase - Number of Reports |
| --- | --- | --- | --- |
| Oc1ccc2c3c1O[C@H]1[C@@H](O)CC[C@@]4(O)[C@@H](C2)N(CC2CCC2)CC[C@]314 [NALBUPHINE] | Inactive | 0 | < 4 |
| O=C1CC[C@@]2(O)[C@H]3Cc4ccc(O)c5c4[C@@]2(CCN3CC2CC2)[C@H]1O5 [NALTREXONE] | Inactive | 23.3 | < 4 |
| COc1ccc2cc([C@H](C)C(=O)O)ccc2c1 [NAPROXEN] | Inactive | 0 | < 4 |
| CCCc1c2oc(C(=O)O)cc(=O)c2cc2c(=O)cc(C(=O)O)n(CC)c12 [NEDOCROMIL] | Inactive | 0.3 | < 4 |
| CCc1nn(CCCN2CCN(c3cccc(Cl)c3)CC2)c(=O)n1CCOc1ccccc1 [NEFAZODONE] | Marginally Active | 3.3 | >= 4 |
| CCN[C@@H]1C[C@H](N)[C@@H](O[C@H]2OC(CN)=CC[C@H]2N)[C@H](O)[C@H]1O[C@H]1OC[C@](C)(O)[C@H](NC)[C@H]1O [NETILMICIN] | Inactive | 0 | < 4 |
| Cc1ccnc2c1NC(=O)c1cccnc1N2C1CC1 [NEVIRAPINE] | Active | 55 | >= 4 |
| COC(=O)C1=C(C)NC(C)=C(C(=O)OCCN(C)Cc2ccccc2)C1c1cccc([N+](=O)[O-])c1 (configuration not stated) [NICARDIPINE] | Inactive | 2.5 | >= 4 |
| CN1CCC[C@H]1c1cccnc1 [NICOTINE] | Inactive | 0.6 | < 4 |

tested on: Hepatotoxicity; assay: FDA HLAED, alkaline phosphatase increase; conditions: human

| Compound | Alkaline Phosphatase Increase - Activity Score | Alkaline Phosphatase Increase - Index Value | Alkaline Phosphatase Increase - Number of Reports |
| --- | --- | --- | --- |
| Oc1ccc2c3c1O[C@H]1[C@@H](O)CC[C@@]4(O)[C@@H](C2)N(CC2CCC2)CC[C@]314 [NALBUPHINE] | Inactive | 0 | < 4 |
| O=C1CC[C@@]2(O)[C@H]3Cc4ccc(O)c5c4[C@@]2(CCN3CC2CC2)[C@H]1O5 [NALTREXONE] | Inactive | 0 | < 4 |
| COc1ccc2cc([C@H](C)C(=O)O)ccc2c1 [NAPROXEN] | Inactive | 0.1 | < 4 |
| CCCc1c2oc(C(=O)O)cc(=O)c2cc2c(=O)cc(C(=O)O)n(CC)c12 [NEDOCROMIL] | Inactive | 0 | < 4 |
| CCc1nn(CCCN2CCN(c3cccc(Cl)c3)CC2)c(=O)n1CCOc1ccccc1 [NEFAZODONE] | Inactive | 1.1 | >= 4 |
| CCN[C@@H]1C[C@H](N)[C@@H](O[C@H]2OC(CN)=CC[C@H]2N)[C@H](O)[C@H]1O[C@H]1OC[C@](C)(O)[C@H](NC)[C@H]1O [NETILMICIN] | Inactive | 0 | < 4 |
| Cc1ccnc2c1NC(=O)c1cccnc1N2C1CC1 [NEVIRAPINE] | Active | 27.5 | >= 4 |
| COC(=O)C1=C(C)NC(C)=C(C(=O)OCCN(C)Cc2ccccc2)C1c1cccc([N+](=O)[O-])c1 (configuration not stated) [NICARDIPINE] | Inactive | 2 | >= 4 |
| CN1CCC[C@H]1c1cccnc1 [NICOTINE] | Inactive | 0 | < 4 |

tested on: Hepatotoxicity; assay: FDA HLAED, serum glutamic oxaloacetic transaminase (SGOT) increase; conditions: human

| Compound | SGOT Increase - Activity Score | SGOT Increase - Index Value | SGOT Increase - Number of Reports |
| --- | --- | --- | --- |
| Oc1ccc2c3c1O[C@H]1[C@@H](O)CC[C@@]4(O)[C@@H](C2)N(CC2CCC2)CC[C@]314 [NALBUPHINE] | Inactive | 0 | < 4 |
| O=C1CC[C@@]2(O)[C@H]3Cc4ccc(O)c5c4[C@@]2(CCN3CC2CC2)[C@H]1O5 [NALTREXONE] | Inactive | 0 | < 4 |
| COc1ccc2cc([C@H](C)C(=O)O)ccc2c1 [NAPROXEN] | Inactive | 0.1 | >= 4 |
| CCCc1c2oc(C(=O)O)cc(=O)c2cc2c(=O)cc(C(=O)O)n(CC)c12 [NEDOCROMIL] | Inactive | 0.5 | < 4 |
| CCc1nn(CCCN2CCN(c3cccc(Cl)c3)CC2)c(=O)n1CCOc1ccccc1 [NEFAZODONE] | Marginally Active | 3.6 | >= 4 |
| CCN[C@@H]1C[C@H](N)[C@@H](O[C@H]2OC(CN)=CC[C@H]2N)[C@H](O)[C@H]1O[C@H]1OC[C@](C)(O)[C@H](NC)[C@H]1O [NETILMICIN] | Inactive | 0 | < 4 |
| Cc1ccnc2c1NC(=O)c1cccnc1N2C1CC1 [NEVIRAPINE] | Active | 68.7 | >= 4 |
| COC(=O)C1=C(C)NC(C)=C(C(=O)OCCN(C)Cc2ccccc2)C1c1cccc([N+](=O)[O-])c1 (configuration not stated) [NICARDIPINE] | Marginally Active | 3 | >= 4 |
| CN1CCC[C@H]1c1cccnc1 [NICOTINE] | Inactive | 0.6 | < 4 |

tested on: Hepatotoxicity; assay: FDA HLAED, lactate dehydrogenase (LDH) increase; conditions: human

| Compound | LDH Increase - Activity Score | LDH Increase - Index Value | LDH Increase - Number of Reports |
| --- | --- | --- | --- |
| Oc1ccc2c3c1O[C@H]1[C@@H](O)CC[C@@]4(O)[C@@H](C2)N(CC2CCC2)CC[C@]314 [NALBUPHINE] | Inactive | 0 | < 4 |
| O=C1CC[C@@]2(O)[C@H]3Cc4ccc(O)c5c4[C@@]2(CCN3CC2CC2)[C@H]1O5 [NALTREXONE] | Inactive | 0 | < 4 |
| COc1ccc2cc([C@H](C)C(=O)O)ccc2c1 [NAPROXEN] | Inactive | 0 | < 4 |
| CCCc1c2oc(C(=O)O)cc(=O)c2cc2c(=O)cc(C(=O)O)n(CC)c12 [NEDOCROMIL] | Inactive | 0.3 | < 4 |
| CCc1nn(CCCN2CCN(c3cccc(Cl)c3)CC2)c(=O)n1CCOc1ccccc1 [NEFAZODONE] | Inactive | 1.1 | >= 4 |
| CCN[C@@H]1C[C@H](N)[C@@H](O[C@H]2OC(CN)=CC[C@H]2N)[C@H](O)[C@H]1O[C@H]1OC[C@](C)(O)[C@H](NC)[C@H]1O [NETILMICIN] | Inactive | 0 | < 4 |
| Cc1ccnc2c1NC(=O)c1cccnc1N2C1CC1 [NEVIRAPINE] | Active | 34.4 | >= 4 |
| COC(=O)C1=C(C)NC(C)=C(C(=O)OCCN(C)Cc2ccccc2)C1c1cccc([N+](=O)[O-])c1 (configuration not stated) [NICARDIPINE] | Inactive | 0.9 | >= 4 |
| CN1CCC[C@H]1c1cccnc1 [NICOTINE] | Inactive | 0.9 | < 4 |
